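Dose response: 5 concentrations. Exposure: 48 h. Format: 96-well plates. Endpoint: linear interpolation; highest concentration if not reached. GI50: concentration for 50% inhibition of growth.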 The source made the active and inactive calls. Rule as the data show it: active = GI50 up to about 1.1 µM and inactive = higher.

From ChEMBL document CHEMBL1201862, “PubChem BioAssay data set” (2004) come the findings set out here.

Holding throughout (assay): NCI-60 cell line screen, 48 h
For assay [1], the system named is A498.
Assay [2] concerns A549.
Assay [3] has as its system ACHN.
The test system of assay [4] is CAKI-1.
The test system of assay [5] is CCRF-CEM.
Assay [6] relates to DU-145.
For assay [7], the system named is HOP-62.
The test system of assay [8] is LOX IMVI.
The subject of assay [9] is M14.
The test system of assay [10] is MDA-N.
The subject of assay [11] is Malme-3M.
For assay [12], the system named is OVCAR-3.
Assay [13] has as its system SK-MEL-28.
Assay [14] deals with SK-MEL-2.
Assay [15] deals with SK-MEL-5.
Assay [16] concerns SK-OV-3.
The test system of assay [17] is UO-31.
Assay [18] deals with HOP-92.
In assay [19] the test system is SF-268.
The subject of assay [20] is SR.

For `CC1=CCS(=O)(=O)C1C(O)C1=C(C)CCCC1(C)C` (centres undefined), the GI50 is 0.0395 µM (active) in [1]; 68.5 µM (inactive) in assay [2]; > 100 µM (inactive) in [3]; > 100 µM (inactive) in [4]; 71.3 µM (inactive) in assay [5]; > 100 µM (inactive) in assay [6]. Further, the GI50 in assay [7] was > 100 µM (inactive); in [8], 62.2 µM (inactive); in assay [9], 69.2 µM (inactive); in assay [10], 63.1 µM (inactive); in [11] it was 60 µM (inactive); in assay [12], 99.8 µM (inactive). The GI50 is > 100 µM (inactive) in assay [13]; > 100 µM (inactive) in [14]; 44.4 µM (inactive) in assay [15]; > 100 µM (inactive) in assay [16]; 38.3 µM (inactive) in assay [17].
Consider `CCCCCC(C)C[C@H]1CO[C@H](c2ccc[nH]2)N[C@H]1C(=O)OC` (some centres undefined), for which the GI50 in [1], in assay [2], in assay [3], in assay [4], in assay [5] and in assay [6] was > 100 µM (inactive) each time. Further, the GI50 was > 100 µM (inactive) in assay [7]; 29.9 µM (inactive) in [18]; > 100 µM (inactive) in [8]; > 100 µM (inactive) in assay [9]; > 100 µM (inactive) in assay [10]; > 100 µM (inactive) in [11]. The GI50 in assay [12], in assay [19], in assay [13], in assay [14], in assay [15] and in assay [16] was > 100 µM (inactive) throughout.
As to `O=C(Cn1c(=O)ccn(C2OC(CO)C(O)C2F)c1=O)c1ccc(F)cc1` (centres undefined), the GI50 in [2], in [3], in [4], in [5], in assay [6] and in assay [7] was > 100 µM (inactive) each time. Also, the GI50 in assay [8], in assay [10], in assay [11], in assay [12], in assay [19] and in [13] was > 100 µM (inactive) throughout. The GI50 in assay [15] and in assay [17] was > 100 µM (inactive) each time.
On to `Cc1oc2nc1C(=O)NCc1nc(cs1)C(=O)N[C@H](C(C)C)c1nc(cs1)C(=O)N[C@H]2C`, for which the GI50 was > 100 µM (inactive) in assay [1]; 47.2 µM (inactive) in assay [2]; > 100 µM (inactive) in assay [3]; 44.9 µM (inactive) in assay [4]; > 100 µM (inactive) in assay [5]; 79.3 µM (inactive) in assay [6]. Moreover, the GI50 is 85.1 µM (inactive) in assay [7]; 61.1 µM (inactive) in [18]; > 100 µM (inactive) in assay [9]; > 100 µM (inactive) in assay [10]; > 100 µM (inactive) in assay [11]; > 100 µM (inactive) in assay [12]. Also, the GI50 in assay [19] is 85.5 µM (inactive); in [13] it was > 100 µM (inactive); in [15], 23.1 µM (inactive); in assay [16] it was > 100 µM (inactive); in assay [17] it was 37.2 µM (inactive).
Turning to `COC(=O)C1=C2SCc3cccc(c3)CSC3=C(C(=O)OC)SC(=C(S2)S1)S3`, the GI50 in assay [1], in assay [2], in [3], in assay [4], in [5] and in assay [6] was > 100 µM (inactive) each time. The GI50 in assay [7] is > 100 µM (inactive); in assay [9], 82.6 µM (inactive); in [10], 35.2 µM (inactive); in assay [12], > 100 µM (inactive); in assay [13], > 100 µM (inactive); in [14] it was 32.7 µM (inactive). The GI50 in [15], in assay [16] and in assay [17] was > 100 µM (inactive) each time.
As to `NS(=O)(=O)c1ccc(/N=N/c2ccc(O)c(C(=O)O)c2)cc1` [SALAZOSULFAMIDE], the GI50 in assay [1], in [2], in assay [3], in [4], in assay [6] and in assay [7] was > 100 µM (inactive) each time. Moreover, the GI50 in [18] is > 100 µM (inactive); in assay [9], > 100 µM (inactive); in assay [10] it was > 100 µM (inactive); in assay [11], 52.2 µM (inactive); in assay [12] it was > 100 µM (inactive); in assay [19] it was > 100 µM (inactive). Moreover, the GI50 is > 100 µM (inactive) in assay [13]; 20.7 µM (inactive) in [14]; > 100 µM (inactive) in [15]; > 100 µM (inactive) in [16]; > 100 µM (inactive) in assay [17].
For the molecule `COCCCN1C(=O)C2c3[nH]c4ccccc4c3C3CCC(C(C)(C)C)CC3C2C1=O` (centres undefined), the GI50 in assay [2] is 32.6 µM (inactive); in assay [3] it was 27.4 µM (inactive); in assay [4], 29.5 µM (inactive); in [5] it was 22.6 µM (inactive); in [6], 58.9 µM (inactive); in [7] it was 22.4 µM (inactive). Further, the GI50 was 18.4 µM (inactive) in [9]; 35.6 µM (inactive) in [10]; 17.4 µM (inactive) in assay [12]; 43.7 µM (inactive) in assay [19]; 38 µM (inactive) in assay [13]; 27.4 µM (inactive) in assay [15]. In addition, the GI50 was > 100 µM (inactive) in [16], 25.4 µM (inactive) in assay [20] and 54.3 µM (inactive) in assay [17].
Regarding `C=C(C)[C@H]1C2=CC(C(=O)OC)=C(C[C@H](C(=C)C)[C@@H](O)[C@@H](O)C3=C[C@H]1OC3=O)O2`, the GI50 is > 100 µM (inactive) in [1]; > 100 µM (inactive) in [2]; > 100 µM (inactive) in [3]; > 100 µM (inactive) in assay [4]; 87.9 µM (inactive) in assay [5]; > 100 µM (inactive) in assay [6]. Moreover, the GI50 in assay [7] is > 100 µM (inactive); in assay [18], 65.5 µM (inactive); in [8] it was > 100 µM (inactive); in assay [9], > 100 µM (inactive); in assay [10] it was > 100 µM (inactive); in [11], > 100 µM (inactive). The GI50 in [12] is > 100 µM (inactive); in assay [19], > 100 µM (inactive); in assay [14], > 100 µM (inactive); in [15] it was > 100 µM (inactive); in assay [16], > 100 µM (inactive); in [17], 18 µM (inactive).
For `NNC(=O)CS(=O)(=O)Nc1ncccn1`, the GI50 in [1], in assay [2], in [3], in [4], in [6] and in assay [7] was > 100 µM (inactive) throughout. The GI50 in assay [18], in [8], in assay [9], in [10], in assay [11] and in assay [12] was > 100 µM (inactive) in each case. In addition, the GI50 in assay [19], in assay [13], in [14], in [15], in assay [16] and in assay [17] was > 100 µM (inactive) throughout.
Consider `COc1ccc(C(=O)C(CC2C(=O)CC(C)(C)C(C(=O)C(=O)Nc3c(C)cccc3C)C2=O)c2ccc(OC)cc2)cc1` (centres undefined), for which the GI50 in [2], in [3], in [4], in assay [5], in assay [6] and in [7] was > 100 µM (inactive) in each case. Further, the GI50 in [18], in assay [8], in assay [9], in assay [10], in [12] and in assay [19] was > 100 µM (inactive) in each case. Moreover, the GI50 was > 100 µM (inactive) in assay [13]; > 100 µM (inactive) in assay [14]; > 100 µM (inactive) in assay [15]; > 100 µM (inactive) in [16]; 22.9 µM (inactive) in assay [20]; 70.1 µM (inactive) in assay [17].
In the case of `COc1ccc(C(=O)/C=C/c2ccc(OCCSCCCCCCCCCCSCCOc3ccc(/C=C/C(=O)c4ccc(OC)cc4)cc3)cc2)cc1`, the GI50 in [2], in [3], in assay [4], in assay [5], in [6] and in assay [7] was > 100 µM (inactive) in each case. The GI50 in assay [9] is > 100 µM (inactive); in assay [10], < 0.01 µM (active); in [19] it was > 100 µM (inactive); in [13], > 100 µM (inactive); in assay [14] it was > 100 µM (inactive); in [15] it was > 100 µM (inactive). The GI50 in [16], in assay [20] and in assay [17] was > 100 µM (inactive) each time.
Regarding `COC(=O)/C=C1/N=C(N(C)/N=C/c2ccccc2)NC1=O`, the GI50 in [2], in assay [4], in assay [5], in assay [6], in [7] and in assay [8] was > 100 µM (inactive) in each case. For the same molecule, the GI50 in assay [9], in assay [10], in assay [11], in assay [12], in assay [19] and in [13] was > 100 µM (inactive) each time. Moreover, the GI50 in assay [14], in [15], in [16], in [20] and in assay [17] was > 100 µM (inactive) throughout.
